Data reported in patent US8486962B2, “Antifungal agents” (F2G Ltd., priority 2005, dated 2013).
≈ marks a conversion by molar mass, not a printed value.

How the values were obtained:
[1] = test system: Aspergillus terreus; assay: MIC, YAG medium, Aspergillus terreus; format: cell-based; settings: YAG medium; for MIC: Aspergillus terreus, read-out: MIC A Terreus 4
Method in brief: (§1)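 Broth microdilution over doubling dilutions (50-0.05 mg/L). C. albicans in RPMI with 2% glucose and 0.135M MOPS (pH7.0), 1-2×10^3 cfu/ml, 24-48 hrs at 35° C; MIC = >80% growth inhibition by OD485. Aspergillus spp. in YAG (1% glucose, 1% ammonium chloride, 0.5% yeast extract), 1-2×10^4 cfu/ml, 24 hrs, >70% inhibition.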

[2] = test system: Aspergillus flavus; assay: MIC, YAG medium, Aspergillus flavus; format: cell-based; settings: YAG medium; for MIC: Aspergillus flavus, read-out: MIC A Flavus 01
Method in brief: as §1

[3] = test system: Aspergillus niger; assay: MIC, YAG medium, Aspergillus niger; format: cell-based; settings: YAG medium; for MIC: Aspergillus niger, read-out: MIC A Niger 1
Method in brief: as §1

[4] = test system: A Terreus 49; assay: MIC, YAG medium, A Terreus 49; format: cell-based, Aspergillus terreus; settings: YAG medium; for MIC: Aspergillus terreus, read-out: MIC A Terreus 49
Method: Measurement of Minimum Inhibitory Concentrations (MICs)
Between 1 and 5 mgs of compound were accurately weighed out into a sterile Eppendorf tube. The compound was dissolved in DMSO to give a solution containing 5 mg/ml. Tubes were stored at −20° C. until required.
On the day of testing thawed solutions were vortex mixed to ensure homogeneity. 30 μl of solution was removed and added to 570 μl of sterile water in a separate sterile Eppendorf. The thoroughly mixed solution was used to prepare a series of doubling dilutions in water, in a deep well plate. Eleven replicate plates were prepared using a Minitrak by aspirating 20 μl from each well into eleven clear polystyrene 96 well plates.
Spores of Aspergillus spp (Aspergillus fumigatus, Aspergillus terreus, Aspergillus niger and Aspergillus flavus) were harvested from cultures grown on Sabarauds agar for 5 days, and resuspended in PBS/Tween 80 to approx 1×10^7 cfu/ml Other filamentous fungi (Fusarium solani, Scedosporium spp., Trichophyton spp., Absidia corymbifera), were grown on Sabarauds agar for 2-10 days and spores/hyphae resuspended in PBS/Tween to give approx 1×10^7 cfU/ml. Candida species (Candida albicans, Candida glabrata, Candida krusei, Candida parapsilosis and Candida tropicalis) were grown on Sabarauds agar, cells were harvested from the agar using a sterile loop and resuspended in PBS/Tween 80 to approx 1×10^6 cfu/ml. Each organism suspension was diluted in RPMI medium, containing 2% glucose and 0.135M MOPS buffer (pH7.0) to 2×10^4 cfu/ml for Aspergillus spp and other filamentous fungi and 2×10^3 cfu/ml for yeast. 80 μl of an organism suspension was added to each well of the plate containing drug dilutions.
This produced MIC plates with a drug range 50-0.05 mg/L and organism inocula of 1-2×10^4 cfu/ml for Aspergillus spp and other filamentous fungi and 1-2×10^3 cfu/ml for yeasts. All plates were incubated for 24-48 hrs at 35° C. Growth was assessed by monitoring the optical density at 485 nm for each well. The MIC of a compound is the lowest drug concentration that inhibits growth of an organism by >80% compared with a drug free control. MICs are recorded as mg/L. Other growth media can be used for susceptibility testing, and the activity of the described compounds can also be assessed in a medium comprising, 1% glucose, 1% ammonium chloride and 0.5% yeast extract (YAG medium). To perform MIC tests in this medium, dilutions of compounds are prepared in microtitre plates as described above. Fungal strains to be tested are grown and harvested in an identical manner to that described above, each organism suspension is then diluted in YAG medium to 2×10^4 cfu/ml for Aspergillus spp and other filamentous fungi and 2×10^3 cfu/ml for yeast. 80 μl of an organism suspension was added to each well of the plate containing drug dilutions. This produced MIC plates with a drug range 50-0.05 mg/L and organism inocula of 1-2×10^4 cfu/ml for Aspergillus spp and other filamentous fungi and 1-2×10^3 cfu/ml for yeasts. All plates were incubated for 24 hrs at 35° C. Growth was assessed by monitoring the optical density at 485 nm for each well. The MIC of a compound is the lowest drug concentration that inhibits growth of an organism by >70% compared with a drug free control. MICs are recorded as mg/L. In cases where the MIC of an organism is […]0.05 mg/L the MIC is repeated using a concentration range of 0.5-0.0005 mg/L. MIC tests in YAG medium have more clear-cut endpoints and have slightly lower MICS than those performed in RPMI medium.
The following organisms were tested: Aspergillus fumigatus AF293 and Aspergillus fumigatus AF210, Aspergillus niger, Aspergillus terreus, Aspergillus favus, Candida albicans, Candida krusei, Candida tropicalis, Candida glabrata, Candida parapsilosis, Trichophyton rubrum, Trichophyton mentagrophytes, Scedosporium prolificans, Scedosporium apiospermum, Absidia corymbifera, Fusarium solani.

[5] = test system: Aspergillus fumigatus AF293; assay: MIC, YAG medium, Aspergillus fumigatus AF293; format: cell-based; settings: YAG medium; for MIC: Aspergillus fumigatus, AF293, read-out: MIC A Fum. 293
Method in brief: as §1

[6] = test system: Aspergillus fumigatus AF210; assay: MIC, YAG medium, Aspergillus fumigatus AF210; format: cell-based; settings: YAG medium; for MIC: Aspergillus fumigatus, AF210, read-out: MIC A Fum. 210
Method in brief: as §1

## CC(=O)Cc1ccc(NC(=O)C(=O)c2c(-c3ccccc3)cc3ccccn23)cc1 [Example 284, 2-Oxo-N-[4-(2-oxo-propyl)-phenyl]-2-(2-phenyl-indolizin-3-yl)-acetamide]
[1]
  MIC: 0.05 µg/mL (≈ 0.126 µM)
[2]
  MIC: 0.05 µg/mL (≈ 0.126 µM)
[3]
  MIC: 0.05 µg/mL (≈ 0.126 µM)
[4]
  MIC: 0.015 µg/mL (≈ 0.0378 µM)
[5]
  MIC: 0.1 µg/mL (≈ 0.252 µM)
[6]
  MIC: 0.1 µg/mL (≈ 0.252 µM)

## COc1ccc(NC(=O)C(=O)c2c(-c3cccc(Cl)c3)cc3ccccn23)cc1 [Example 235, 2-[2-(3-Chloro-phenyl)-indolizin-3-yl]-N-(4-methoxy-phenyl)-2-oxo-acetamide]
[1]
  MIC: 0.015 µg/mL (≈ 0.0371 µM)
[2]
  MIC: 0.031 µg/mL (≈ 0.0766 µM)
[3]
  MIC: 0.12 µg/mL (≈ 0.296 µM)
[4]
  MIC: 0.008 µg/mL (≈ 0.0198 µM)
[5]
  MIC: 0.5 µg/mL (≈ 1.24 µM)
[6]
  MIC: 0.5 µg/mL (≈ 1.24 µM)

## COc1ccc(NC(=O)C(=O)c2c(-c3ccccc3)cc3ccccn23)cn1 [Example 146, N-(6-Methoxy-pyridin-3-yl)-2-oxo-2-(2-phenyl-indolizin-3-yl)-acetamide]
[1]
  MIC: 0.062 µg/mL (≈ 0.167 µM)
[2]
  MIC: 0.062 µg/mL (≈ 0.167 µM)
[3]
  MIC: 0.25 µg/mL (≈ 0.673 µM)
[4]
  MIC: 0.03 µg/mL (≈ 0.0808 µM)
[5]
  MIC: 0.5 µg/mL (≈ 1.35 µM)
[6]
  MIC: 0.5 µg/mL (≈ 1.35 µM)

## Cc1cc(NC(=O)C(=O)c2c(-c3ccccc3)cc3ccccn23)ccc1N(C)C [Example 273, N-(4-Dimethylamino-3-methyl-phenyl)-2-oxo-2-(2-phenyl-indolizin-3-yl)-acetamide]
[1]
  MIC: 0.004 µg/mL (≈ 0.0101 µM)
[2]
  MIC: 0.004 µg/mL (≈ 0.0101 µM)
[3]
  MIC: 0.12 µg/mL (≈ 0.302 µM)
[4]
  MIC: 0.002 µg/mL (≈ 0.00503 µM)
[5]
  MIC: 0.062 µg/mL (≈ 0.156 µM)
[6]
  MIC: 0.031 µg/mL (≈ 0.078 µM)

## COc1ccc(NC(=O)C(=NOCCN(C)C)c2c(-c3ccccc3)cc3ccccn23)cc1 (mixture of isomers) [Example 295, 2-[(E/Z)-2-Dimethylamino-ethoxyimino]-N-(4-methoxy-phenyl)-2-(2-phenyl-indolizin-3-yl)-acetamide]
[1]
  MIC A Terreus 4: 6.25 µg/mL
[2]
  MIC A Flavus 01: 12.5 µg/mL
[3]
  MIC A Niger 1: 25 µg/mL
[4]
  MIC A Terreus 49: 6.25 µg/mL
[5]
  MIC A Fum. 293: >50 µg/mL
[6]
  MIC A Fum. 210: 50 µg/mL

## CC(O)c1ccc(NC(=O)C(=O)c2c(-c3ccccc3)cc3ccccn23)cc1 (stereo not drawn) [Example 255, N-[4-(1-Hydroxy-ethyl)-phenyl]-2-oxo-2-(2-phenyl-indolizin-3-yl)-acetamide]
[1]
  MIC: 0.2 µg/mL (≈ 0.52 µM)
[2]
  MIC: 0.2 µg/mL (≈ 0.52 µM)
[3]
  MIC: 0.4 µg/mL (≈ 1.04 µM)
[4]
  MIC: 0.1 µg/mL (≈ 0.26 µM)
[5]
  MIC: 1.6 µg/mL (≈ 4.16 µM)
[6]
  MIC: 0.8 µg/mL (≈ 2.08 µM)

## CC(=NO)c1ccc(NC(=O)C(=O)c2c(-c3ccccc3)cc3ccccn23)cc1 (mixture of isomers) [Example 250, N-(4-{1-[(E/Z)-Hydroxyimino]-ethyl}-phenyl)-2-oxo-2-(2-phenyl-indolizin-3-yl)-acetamide]
[1]
  MIC A Terreus 4: 0.1 µg/mL
[2]
  MIC A Flavus 01: 0.1 µg/mL
[3]
  MIC A Niger 1: 0.05 µg/mL
[4]
  MIC A Terreus 49: 0.05 µg/mL
[5]
  MIC A Fum. 293: 0.2 µg/mL
[6]
  MIC A Fum. 210: 0.8 µg/mL

## Cc1ccccc1NC(=O)C(=O)c1c(-c2ccccc2)cc2ccccn12 [Example 202, 2-Oxo-2-(2-phenyl-indolizin-3-yl)-N-o-tolyl-acetamide]
[1]
  MIC: 0.008 µg/mL (≈ 0.0226 µM)
[2]
  MIC: 0.062 µg/mL (≈ 0.175 µM)
[3]
  MIC: 0.031 µg/mL (≈ 0.0875 µM)
[4]
  MIC: 0.015 µg/mL (≈ 0.0423 µM)
[5]
  MIC: 0.5 µg/mL (≈ 1.41 µM)
[6]
  MIC: 0.25 µg/mL (≈ 0.705 µM)

## CCCOC(=O)c1ccc(NC(=O)C(=O)c2c(-c3ccccc3)cc3ccccn23)cc1 [Example 143, 4-[2-Oxo-2-(2-phenyl-indolizin-3-yl)-acetylamino]-benzoic acid propyl ester]
[1]
  MIC: 0.031 µg/mL (≈ 0.0727 µM)
[2]
  MIC: 0.031 µg/mL (≈ 0.0727 µM)
[3]
  MIC: 0.015 µg/mL (≈ 0.0352 µM)
[4]
  MIC: 0.008 µg/mL (≈ 0.0188 µM)
[5]
  MIC: 0.061 µg/mL (≈ 0.143 µM)
[6]
  MIC: 0.06 µg/mL (≈ 0.141 µM)
